Assays:
[1] = under nitrogen; cited from earlier work
[2] = Decomposition in differential thermal analysis (2% weight loss, atmosphere: air); type: physicochemical
Method: A mixture of 5 g of terephthalic acid and 3.9 g of aluminum trisdiethylphosphinate is reacted for 0.5 h at 350° C., as in example 1.

Compound	Evaporation temperature [1]	Decomposition in differential thermal analysis (2% weight loss) [2]
aluminum trisdiethylphosphinate	400 to 500 °C	355 °C
CC(C)CP(=O)([O-])CC(C)C.CC(C)CP(=O)([O-])CC(C)C.CC(C)CP(=O)([O-])CC(C)C.[Al+3] [aluminum salt of diisobutylphosphinic acid]	300 to 400 °C	–
CCP(=O)([O-])CC.O=C([O-])c1ccc(C(=O)[O-])cc1.[Al+3] [Example 4, aluminum mono(diethylphosphinate)terephthalate]	–	425 °C
aluminum terephthalate	–	298 °C

Source: patent US8221658B2, “Mixed salts of diorganylphosphinic acids and carboxylic acids” (Clariant Finance (BVI) Limited, priority 2007, dated 2012)
